Experimental data published in patent US5536723A, “S-nitroso derivatives of hydrazinoacetic acids, 1-[(acylthio and (mercapto)-1-oxoalkyl]-1,2,34-Tetrahydroquinoline-2-carboxylic acids and alanyl prolines and isoquinolines” (Brigham & Women's Hospital, priority 1994, dated 1996).
“Also recorded” adds a separate entry of the source. Where two headings read alike, the source gives them in different places.

Key:
[1] = spontaneous hydrolysis (half-life of the S-nitroso bond) in physiologic buffer (PSS); assay type: physicochemical; conditions: 37° C.
Experimental: FIG. 1 depicts a graph showing the spontaneous hydrolysis of S-nitrosocaptopril in PBS. Each point represents the mean ±SEM of four experiments performed in duplicate.
(§1) The half-life of the S-nitroso bond of S-nitrosocaptopril in physiologic buffer and in plasma was determined by incubating purified S-nitrosocaptopril in aerated PSS or in PPP, the results of which are shown in FIG. 1.

[2] = decay of the S-nitroso bond in plasma (PPP); assay type: in vitro ADME; conditions: room temperature
Experimental: as §1

[3] = test system: bovine femoral artery; assay: relaxation of isolated bovine femoral artery rings contracted with norepinephrine; conditions: for IC50: Bos taurus
Experimental: FIG. 2 depicts a graph showing the effect of S-nitrosocaptopril on the contraction of bovine femoral arteries to norepinephrine.
(§2) Blood Vessel Preparation. Bovine coronary or femoral arteries were obtained from an abattoir immediately after sacrifice of two- to four-week-old calves. Immediately after removal, the vessel was placed in ice-cold physiologic salt solution (PSS) containing 118.3 mM NaCl, 4.7 mM KCl, 2.5 mM CaCl2, 1.2 mM MgSO4, 1.2 mM KH2 PO4, 25.0 mM NaHCO3, 11.1 mM glucose, and 0.026 mM calcium disodium (ethylenedinitrilo)-tetraacetate. The vessels were then cleaned of adventitial tissue and cut into rings of approximately 5 mm lengths. When called for by the protocol, endothelium was removed from a ring by gently rubbing the luminal surface with a watchmaker's forceps. Vascular rings with intact endothelium were then suspended in organ chambers containing 25 ml of PSS at 37° aerated with 95% O2 -5% CO2. The rings were connected to force transducers (Grass FT03C, Quincy, Mass.) and changes in isometric force recorded continuously (Grass Polygraph Model 79B) over a period of 90 minutes. The optimal length-tension relationship was determined for each ring by observing the response to 10^-6 M norepinephrine after increments in tension of 0.5 gm. The functional integrity of the endothelium was assessed by contracting the vessel with 10^-6 M norepinephrine and then observing the response to 3×10^-7 M acetylcholine chloride.
Vascular ring segments with intact endothelium were […] contracted with a concentration of norepinephrine inducing a half-maximal response. After a stable contraction had been achieved, the tissue was exposed to increasing concentrations of S-nitrosocaptopril in cumulative half-log increments. […] The apparent IC50 is approximately 1 μM.

[4] = test system: bovine coronary artery; assay: relaxation of isolated bovine coronary artery rings contracted with potassium chloride
From the text: FIG. 5 depicts a graph showing the relaxation to sodium nitroprusside in the bovine coronary artery in the presence (o; n=7) or absence (; n:12) of a subthreshhold dose of S-nitrosocaptopril. The data are expressed as a percentage of the initial tension generated by potassium chloride (4×10^-2 M; coronary arteries) and are shown as mean ±SEM in each group.
as §2
Thus, to study vasodilating agents in this tissue the vessels were first contracted with potassium chloride (40 mM). Relaxations are expressed as a percent of the concentration to 40 mM potassium chloride.
Relaxations to S-nitrosocaptopril were inhibited by the antagonist of soluble guanylate cyclase, methylene blue (FIG. 4). Sodium nitroprusside induced dose-dependent relaxations of contractions to potassium chloride. The relaxation to sodium nitroprusside was inhibited by subthreshold doses of S-nitrosocaptopril (FIG. 5).

[5] = arterial pressure in the anesthetized rabbit; assay type: in vivo; conditions: 1 mM solution infused in an ear vein, 0.02 to 2.2 ml/min
Experimental: A 1 mM solution of S-nitrosocaptopril was infused in an ear vein of the rabbit at rates from 0.02 to 2.2 ml/min and the phasic and mean arterial pressure recorded in the femoral artery.

[6] = test system: cGMP (and cAMP) in vascular rings; assay: cGMP (and cAMP) levels in vessel ring segments; assay type: cell-based; conditions: 10^-5 M, one minute
Experimental: (§3) Since the postulated mechanism by which the nitrosothiol moiety of S-nitrosocaptopril directly relaxes vascular smooth muscle and attenuates the platelet aggregation response is believed to be through activation of soluble guanylate cyclase, cGMP (and cAMP) levels were measured in vessel ring segments and in platelets incubated with 10^-5 M S-nitrosocaptopril.

[7] = test system: cGMP (and cAMP) in platelets; assay: cGMP (and cAMP) levels in platelets; assay type: cell-based; conditions: 10^-5 M, one minute
Experimental: as §3

[8] = test system: bovine femoral artery, contraction to angiotensin I; assay: contraction of the bovine femoral artery to angiotensin I
Experimental: The data are expressed as a percentage of the maximal response to norepinephrine (10^-6 M) and are shown as mean ±SEM in each group (n=7).
as §2

[9] = test system: bovine femoral artery, contraction to angiotensin II; assay: contraction of the bovine femoral artery to angiotensin II
Experimental: The data are expressed as a percentage of the maximal response to norepinephrine (10^-4 M) and are shown as mean ±SEM in each group (n=6).
as §2

[10] = test system: bovine femoral artery, response to bradykinin; assay: response of the bovine femoral artery to bradykinin; conditions: 10^-6 M
Experimental: as §2
In the bovine femoral artery contracted with a concentration of norepinephrine inducing a half-maximal response, bradykinin induced a biphasic response.

## C[C@H](CSN=O)C(=O)N1CCC[C@H]1C(=O)O [S-nitrosocaptopril]
[1]
  estimated half-life of the S-nitroso bond (thiol-bound, mercurous-displaceable nitrite): approximately 2.8 hours
[2]
  estimated half-life of the S-nitroso bond: ~2.5 h
[3]; compared with coronary artery, p<0.05, n=6, read-out: IC50 (relaxation, femoral artery)
  IC50: 5.6 µM
[3]; norepinephrine-contracted, intact endothelium, FIG. 2, read-out: apparent IC50 (relaxation)
  IC50: ~1 µM
[3]; compared with Ignarro et al.
  potency of vasodilation relative to S-nitroso-N-acetylpenicillamine (literature value in the bovine coronary artery): approximately one order of magnitude weaker
[3]; norepinephrine-contracted, FIG. 2
  relaxation response (in words): induced dose-dependant relaxation; also recorded: progressive relaxation was observed
[4]; Bos taurus, contracted with potassium chloride (40 mM)
  IC50: 1.9 µM
[4]; Bos taurus, contracted with potassium chloride (40 mM), read-out: maximal relaxation, coronary artery
  Emax: 97 ± 7%
[4]; FIG. 3
  maximum inhibitory effect / relaxation, coronary artery compared with femoral artery (in words): significantly greater than those in the femoral artery (p<0.05); also recorded: significantly greater in the coronary artery than in the femoral artery
[4]; subthreshold doses of S-nitrosocaptopril, FIG. 5
  effect on relaxation to sodium nitroprusside (in words): inhibited
[5]
  effect on blood pressure (in words): clear decrease in blood pressure
[6]
  cAMP levels, vessel rings (in words): did not change from basal levels
  cGMP level, vascular rings: 0.0375 pmol/mg tissue
[6]; Bos taurus, 1 min, read-out: increase of cGMP levels, vascular rings
  fold induction at 10 µM: 36.5
[7]
  cAMP levels, platelets (in words): did not change from basal levels
  cGMP level, platelets: 5.44 pmoles/10^8 platelets
[7]; Platelet, 1 min, read-out: increase of cGMP levels, platelets
  fold induction at 10 µM: 11.3
[8]
  inhibition of contractions to angiotensin I, S-nitrosocaptopril versus captopril (in words): equally inhibited contractions to angiotensin I
  shift in the response to angiotensin I (rounded, discussion): 50 fold
[8]; 10^-6 M, n=6, p<0.001, FIG. 9
  log shift at the ED50 in the response to angiotensin I: 1.74±0.25 log
  shift at the ED50 in the response to angiotensin I: 56 fold
[9]
  shift rightward in the dose response curve to angiotensin II: 5 fold
[9]; 10^-6 M, FIG. 10
  responses to angiotensin II in the presence of S-nitrosocaptopril (in words): significantly less than control
[10]
  effect on the response to bradykinin (in words): Neither response to bradykinin was affected
